Where two headings read alike, the source gives them in different places.
Columns and labels:
[1] = system: Bacillus subtilis ATCC 6633; assay: Test for antibacterial activity (paper disk, diameter of inhibitory zone, before and after incubation in rat liver/kidney homogenate); format: cell-based; details: 200 mcq/ml, 8 mm paper disk
Protocol: Each of the test compounds shown in the following table was dissolved in a concentration of 200 mcq/ml in a homogenate of a 10% physiological saline solution of an organ of a rat, and incubated at 37° C. for 2 hours. An enzymatic reaction was stopped by adding an equal amount of ethanol. The antibacterial activity of the test compound before incubation was compared with that after incubation. The incubation was carried out in an equal amount mixture of a liver homogenate and a kidney homogenate. The antibacterial activity was measured by a paper disk having a diameter of 8 mm using Bacillus subtilis ATCC 6633 as a test organism, and shown by the diameter of the resulting inhibitory zone.

[2] = Test for concentrations in blood, intrarectal administration; set-up: species or system Male rats; details: rat, in vivo
Protocol: Male rats (body weight 250-350 g: n=3) which had been caused to fast for 18 hours prior to administration were anesthetized with pentobarbirtal. After the abdomen was incised, the upper part of the duodenum was tied. Each of the test compounds was dissolved in water so that its concentration became 12.5 mg/ml as its starting antibiotic (the compound of formula II), and the solution was intraduodenally administered to the rats in a dose of 2 ml/kg. After the administration, blood was drawn periodically from the tail vein, and the concentration of the starting antibiotic in the blood was measured by antimicrobial assay and liquid chromatography.
Male rats (body weight 250-350 g: n=3) which had been caused to fast for 18 hours prior to administration were anesthetized with pentobarbirtal. After the abdomen was incised, the lower part of the rectum was tied. Each of the test compounds was administered intrarectally in the same dose in the same manner as in (1) above, and the concentration of the starting antibiotic in the blood was measured in the same way as in (1) above.

[3] = ATCC6633, after incubation at 37° C. for 2 hours in rat liver homogenate and kidney homogenate, read-out: Diameter of the inhibitory zone, after incubation
[4] = ATCC6633, before incubation, read-out: Diameter of the inhibitory zone, before incubation

Structure (SMILES)	zone of inhibition at 200 µg/mL [1, 3]	zone of inhibition at 200 µg/mL [1, 4]	Maximum concentration in blood Cmax [2]	Tmax [2]
CC(N)C1CCC(N)C(OC2C(N)CC(O)C(N(C)C(=O)CNC(=O)[C@@H](N)CCC(=O)OCCCOC(=O)CC[C@@H](C)[C@H]3CC[C@H]4[C@@H]5CC[C@@H]6C[C@H](O)CC[C@]6(C)[C@H]5C[C@H](O)[C@]34C)C2O)O1 (stereo partly drawn) [Example 20, 2"-N-[γ-O-(3-deoxycholyloxypropyl)-L-glutamyl]-5-de-O-methyl-KA-6606I]	21.8 mm	14.1 mm	7760 ng/mL	30 min
CC(=O)OC1CCC2(C)C(CCC3C2CC(OC(C)=O)C2(C)C(C(C)CCC(=O)OCCCCOC(=O)CCC(N)C(=O)NCC(=O)N(C)C4C(O)CC(N)C(OC5OC(C(C)N)CCC5N)C4O)CCC32)C1 [Example 27, 2"-N-{γ-O-[4-(3,12-di-O-acetyldeoxycholyloxy)butyl]-L-glutamyl}-5-de-O-methyl-KA-6606I]	23.2 mm	13.5 mm	5300 ng/mL	30 min
CCCCCCCCCCCCCCCCCC(=O)NCCCNC(=O)CC[C@H](N)C(=O)NCC(=O)N(C)C1C(O)CC(N)C(OC2OC(C(C)N)CCC2N)C1O (stereo partly drawn) [Example 40, 2"-N-[N^γ -(3-stearoylaminopropyl)-L-glutaminyl]-5-de-O-methyl-KA-6606I]	16.6 mm	14.1 mm		
CCCCCCCCCCCCCCCCCCCCCCCC(=O)NCCCNC(=O)CC[C@H](N)C(=O)NCC(=O)N(C)C1C(O)CC(N)C(OC2OC(C(C)N)CCC2N)C1O (stereo partly drawn) [Example 41, 2"-N-[N^γ -(3-lignocerolylaminopropyl)-L-glutaminyl]-5-de-O-methyl-KA-6606I]	14.1 mm	8 mm		
CC(N)C1CCC(N)C(OC2C(N)CC(O)C(N(C)C(=O)CNC(=O)[C@@H](N)CCC(=O)NCCCCCCCCO)C2O)O1 (stereo partly drawn) [Example 42, 2"-N-[N^γ -(8-hydroxyoctyl)-L-glutaminyl]-5-de-O-methyl-KA-6606I]	23 mm	15.1 mm		
CC(C)OCCCNC(=O)CC[C@H](N)C(=O)NCC(=O)N(C)C1C(O)CC(N)C(OC2OC(C(C)N)CCC2N)C1O (stereo partly drawn) [Example 43, 2"-N-[N^γ -(3-isopropoxypropyl)-L-glutaminyl]-5-de-O-methyl-KA-6606I]	18.4 mm	10.8 mm		
CCCCCCNC(=O)CNC(=O)CC[C@H](N)C(=O)NCC(=O)N(C)C1C(O)CC(N)C(OC2OC(C(C)N)CCC2N)C1O (stereo partly drawn) [Example 44, 2"-N-[N^γ -(hexylaminocarbonylmethyl)-L-glutaminyl]-5-de-O-methyl-KA-6606I]	20.2 mm	8 mm		
CC(=O)OC1CCC2(C)C(CCC3C2CC(OC(C)=O)C2(C)C(C(C)CCC(=O)NCCCNC(=O)CCC(N)C(=O)NCC(=O)N(C)C4C(O)CC(N)C(OC5OC(C(C)N)CCC5N)C4O)CCC32)C1 [Example 45, 2"-N-{N^γ -[3-(3,12-di-O-acetyldeoxycholylamino)propyl]-L-glutaminyl}-5-de-O-methyl-KA-6606I]	16.7 mm	14.8 mm		
CCCOC1CCC2(C)C(CCC3C2CC(OCCC)C2(C)C(C(C)CCC(=O)NCCCNC(=O)CCC(N)C(=O)NCC(=O)N(C)C4C(O)CC(N)C(OC5OC(C(C)N)CCC5N)C4O)CCC32)C1 [Example 46, 2"-N-{N^γ -[3-(3,12-di-O-propyldeoxycholylamino)propyl]-L-glutaminyl}-5-di-O-methyl-KA-6606I]	16.6 mm	15.9 mm		
CC(N)C1CCC(N)C(OC2C(N)CC(O)C(N(C)C(=O)CNC(=O)[C@@H](N)CCC(=O)N[C@@H](Cc3ccccc3)C(=O)O)C2O)O1 (stereo partly drawn) [Example 47, 2"-N-{N^γ -[(s)-1-carboxy-2-phenyl-ethyl]-L-glutaminyl}-5-de-O-methyl-KA-6606I]	17.9 mm	9.5 mm		
CCCCCCCCCC(=O)NC(CCCCNC(=O)CC[C@H](N)C(=O)NCC(=O)N(C)C1C(O)CC(N)C(OC2OC(C(C)N)CCC2N)C1O)C(=O)OC (stereo partly drawn) [Example 48, 2"-N-{N^γ -[5-(decanoylamino)-5-(methoxycarbonyl)pentyl]-L-glutaminyl}-5-de-O-methyl-KA-6606I]	18.3 mm	18 mm		
CCCCCCCCCC(=O)NCCCCC(NC(=O)CC[C@H](N)C(=O)NCC(=O)N(C)C1C(O)CC(N)C(OC2OC(C(C)N)CCC2N)C1O)C(=O)OC (stereo partly drawn) [Example 49, 2"-N-{N^γ -[5-(decanoylamino)-1-(methoxycarbonyl)pentyl]-L-glutaminyl}-5-de-O-methyl-KA-6066I]	16.1 mm	15.9 mm		
CCCCCCCCCC(=O)NCCCNC(=O)CC[C@H](N)C(=O)NCC(=O)N(C)C1C(O)C(OC2OC(C(C)N)CCC2N)C(N)C(O)C1OC (stereo partly drawn) [Example 50, 2"-N-[N^γ -(3-decanoylaminopropyl)-L-glutaminyl)fortimicin A]	23.6 mm	15 mm		
COc1ccc(CSC[C@H](N)C(=O)NCC(=O)N(C)C2C(O)CC(N)C(OC3OC(C(C)N)CCC3N)C2O)cc1 (stereo partly drawn) [Example 51, 2"-N-[S-(p-methoxybenzyl)-L-cysteinyl]-5-de-O-methyl-KA-6606I]	25.4 mm	18.3 mm		
CC(N)C1CCC(N)C(OC2C(N)CC(O)C(N(C)C(=O)CNC(=O)[C@@H](N)CSCc3ccc([N+](=O)[O-])cc3)C2O)O1 (stereo partly drawn) [Example 52, 2"-N-[S-(p-nitrobenzyl)-L-cysteinyl]-5-de-O-methyl-KA-6606I]	26.2 mm	20.7 mm		
CC(N)C1CCC(N)C(OC2C(N)CC(O)C(N(C)C(=O)CNC(=O)[C@@H](N)CSC(c3ccccc3)c3ccccc3)C2O)O1 (stereo partly drawn) [Example 53, 2"-N-(S-diphenylmethyl-L-cysteinyl)-5-de-O-methyl-KA-6606I]	24.3 mm	16.5 mm		
CC(N)C1CCC(N)C(OC2C(N)CC(O)C(N(C)C(=O)CNC(=O)[C@@H](N)CSCc3ccncc3)C2O)O1 (stereo partly drawn) [Example 54, 2"-N-[S-(4-picolyl)-L-cysteinyl]-5-de-O-methyl-KA-6606I]	25.3 mm	14.1 mm		
CCCCCCCCCC(=O)SC[C@H](N)C(=O)NCC(=O)N(C)C1C(O)CC(N)C(OC2OC(C(C)N)CCC2N)C1O (stereo partly drawn) [Example 55, 2"-N-(S-decanoyl-L-cysteinyl)-5-de-O-methyl-KA-6606I]	18.6 mm	10.3 mm		
CCCCCCCCCC(=O)OCCCOC(=O)CC[C@H](N)C(=O)NCC(=O)N(C)C1CCC(N)C(OC2OC(C(C)N)CCC2N)C1O (stereo partly drawn) [Example 56, 2"-N-[N^γ -(3-decanoyloxypropyl)-L-glutamyl)-5-demethoxy-KA-6606I]	24.6 mm	17.5 mm		
CCCCCCCCCC(=O)NCCCNC(=O)CC[C@H](N)C(=O)NCC(=O)N(C)C1C(OC)CC(N)C(OC2OC(CNC)CCC2N)C1O (stereo partly drawn) [Example 57, 2"-N-[N^γ -(3-decanoylaminopropyl)-L-glutaminyl]-KA-7038I]	23 mm	15.9 mm		

— US4855287A, “Aminoglycoside compounds, processes for production thereof, and pharamaceutical composition containing the same” (Kowa Company, Ltd., priority 1985, dated 1989)
